Results on one compound are retold here after patent publication US20120082706A1, “MEDICAL DEVICE FOR DRUG DELIVERY” (TERUMO KABUSHIKI KAISHA, priority 2009, published 2012).

This series in a line: Differential scanning calorimetry (DSC) of drug/compound mixtures (solid solution screening). It counts as physicochemical. How it is done: For the purpose of screening adequate solid dispersions, several exemplary mixtures were prepared, each composed of paclitaxel and a compound of different kind, and these mixtures underwent differential scanning calorimetry (DSC) using a differential scanning calorimeter.
The paclitaxel is a product of SIGMA Corp.
The thus prepared solution was completely freed of ethanol or acetone by vacuum drying. The resulting dry product was placed in an aluminum pan and thereafter underwent DSC in a nitrogen atmosphere at a heating rate of 10° C./min.
For the purpose of observing the properties of the solid solution of HSPC and a drug other than paclitaxel, there were prepared a mixture of HSPC and sirolimus and a mixture of HSPC and simvastatin, as shown in Table 5 below.

Consider `CC(=O)O[C@H]1C(=O)[C@@]2(C)[C@H]([C@H](OC(=O)c3ccccc3)[C@]3(O)C[C@H](OC(=O)[C@H](O)[C@@H](NC(=O)c4ccccc4)c4ccccc4)C(C)=C1C3(C)C)[C@]1(OC(C)=O)CO[C@@H]1C[C@@H]2O` [Comparative Example 4, paclitaxel], for which the “endothermic peak due to fusion of paclitaxel” value (DSC thermogram) is reported as “gave an endothermic peak”. The “Peak due to fusion of paclitaxel” value (DSC, nitrogen atmosphere, 10° C./min, 10 mg compound + 10 mg paclitaxel, dried from ethanol or acetone) is reported as “Yes”.
